Assay results reported in ChEMBL document CHEMBL1201862, “PubChem BioAssay data set” (2004).
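48-hour exposure; five concentrations; linearly interpolated endpoints. GI50: concentration for 50% inhibition of growth.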 The source made the active and inactive calls. No stated cut-off is given here; in the data, active = GI50 up to about 1.1 µM and inactive = higher.

Assays:
Test in all cases: DTP human tumour cell line panel, 48 h
786-0 = test system: 786-0
ACHN = test system: ACHN
HL-60 = test system: HL-60
HOP-62 = test system: HOP-62
LOX IMVI = test system: LOX IMVI
MOLT-4 = test system: MOLT-4
NCI-H226 = test system: NCI-H226
NCI-H23 = test system: NCI-H23
OVCAR-4 = test system: OVCAR-4
OVCAR-8 = test system: OVCAR-8
RXF 393 = test system: RXF 393
SK-MEL-2 = test system: SK-MEL-2
SK-MEL-5 = test system: SK-MEL-5
SK-OV-3 = test system: SK-OV-3
UACC-257 = test system: UACC-257
UACC-62 = test system: UACC-62

Row | Compound | GI50 (786-0) | GI50 (ACHN) | GI50 (HL-60) | GI50 (HOP-62) | GI50 (LOX IMVI) | GI50 (MOLT-4) | GI50 (NCI-H226) | GI50 (NCI-H23) | GI50 (OVCAR-4) | GI50 (OVCAR-8) | GI50 (RXF 393) | GI50 (SK-MEL-2) | GI50 (SK-MEL-5) | GI50 (SK-OV-3) | GI50 (UACC-257) | GI50 (UACC-62)
1 | N#CCCN(c1ccc(/C=N/c2ccccc2Cl)cc1)S(=O)(=O)c1ccccc1 | > 100 µM (inactive) | > 100 µM (inactive) | > 100 µM (inactive) | > 100 µM (inactive) | > 100 µM (inactive) | > 100 µM (inactive) | > 100 µM (inactive) | > 100 µM (inactive) | > 100 µM (inactive) | > 100 µM (inactive) | > 100 µM (inactive) | > 100 µM (inactive) | > 100 µM (inactive) | > 100 µM (inactive) | > 100 µM (inactive) | > 100 µM (inactive)
2 | CC1=C(C(=O)Nc2ccccc2C)C(c2ccccc2O)C(C(=O)Nc2ccccc2C)=C(C)N1 | 15.3 µM (inactive) | 22.3 µM (inactive) | 21 µM (inactive) | 21.1 µM (inactive) | 18.6 µM (inactive) | 27.5 µM (inactive) | 23.8 µM (inactive) | 34.2 µM (inactive) | 22.2 µM (inactive) | 19.8 µM (inactive) | 25.6 µM (inactive) | 17.1 µM (inactive) | 20 µM (inactive) | – | 22 µM (inactive) | 15.8 µM (inactive)
3 | Nc1nc2sc3ccccc3c(=O)n2n1 | > 100 µM (inactive) | > 100 µM (inactive) | > 100 µM (inactive) | > 100 µM (inactive) | > 100 µM (inactive) | > 100 µM (inactive) | > 100 µM (inactive) | > 100 µM (inactive) | > 100 µM (inactive) | > 100 µM (inactive) | > 100 µM (inactive) | > 100 µM (inactive) | > 100 µM (inactive) | > 100 µM (inactive) | > 100 µM (inactive) | > 100 µM (inactive)
4 | N#CC(Sc1ccccc1)C(N)=O (centres undefined) | > 100 µM (inactive) | – | > 100 µM (inactive) | > 100 µM (inactive) | > 100 µM (inactive) | > 100 µM (inactive) | > 100 µM (inactive) | > 100 µM (inactive) | > 100 µM (inactive) | > 100 µM (inactive) | > 100 µM (inactive) | – | > 100 µM (inactive) | > 100 µM (inactive) | > 100 µM (inactive) | > 100 µM (inactive)
5 | C/C(=C\Cc1cc(O)ccc1O)CCc1c(C)c(O)c(O)c(C=O)c1C [PANICEIN C] | 25.6 µM (inactive) | 20.3 µM (inactive) | > 100 µM (inactive) | – | – | 17.1 µM (inactive) | 34.5 µM (inactive) | 18.4 µM (inactive) | 26.5 µM (inactive) | 17.9 µM (inactive) | 16.1 µM (inactive) | 23.2 µM (inactive) | 15.5 µM (inactive) | 26.7 µM (inactive) | – | –
6 | [N-]=[N+]=NCC(O)Cn1cnc2c(NC(=O)c3ccccc3)ncnc21 (centres undefined) | 41.8 µM (inactive) | > 100 µM (inactive) | > 100 µM (inactive) | > 100 µM (inactive) | > 100 µM (inactive) | > 100 µM (inactive) | > 100 µM (inactive) | > 100 µM (inactive) | > 100 µM (inactive) | > 100 µM (inactive) | > 100 µM (inactive) | > 100 µM (inactive) | > 100 µM (inactive) | – | > 100 µM (inactive) | > 100 µM (inactive)
7 | COc1ccc2cc3n(c2c1)CCc1cc(OC)c(OC)cc1-3 | > 100 µM (inactive) | > 100 µM (inactive) | > 100 µM (inactive) | > 100 µM (inactive) | > 100 µM (inactive) | > 100 µM (inactive) | > 100 µM (inactive) | > 100 µM (inactive) | 45.9 µM (inactive) | > 100 µM (inactive) | > 100 µM (inactive) | > 100 µM (inactive) | – | > 100 µM (inactive) | 92.3 µM (inactive) | 71.8 µM (inactive)
8 | COc1cccc(-c2cc(O)c3cc4c(cc3n2)OCO4)c1 | 0.107 µM (active) | 0.183 µM (active) | 0.0605 µM (active) | 0.116 µM (active) | 0.0857 µM (active) | 0.139 µM (active) | 0.198 µM (active) | 0.287 µM (active) | 0.938 µM (active) | 0.22 µM (active) | 0.0452 µM (active) | 0.057 µM (active) | 0.0352 µM (active) | 0.0374 µM (active) | 0.0452 µM (active) | 0.0531 µM (active)
9 | O=C(CCc1cc(-c2ccccc2)[nH]c(=S)n1)Nc1ccccc1[N+](=O)[O-] | > 100 µM (inactive) | > 100 µM (inactive) | > 100 µM (inactive) | > 100 µM (inactive) | > 100 µM (inactive) | > 100 µM (inactive) | > 100 µM (inactive) | > 100 µM (inactive) | – | > 100 µM (inactive) | > 100 µM (inactive) | > 100 µM (inactive) | > 100 µM (inactive) | > 100 µM (inactive) | > 100 µM (inactive) | > 100 µM (inactive)
